One experiment addresses T1, AKR1C3 (Homo sapiens, UniProt P42330).
T1 sequence (P42330 1-323): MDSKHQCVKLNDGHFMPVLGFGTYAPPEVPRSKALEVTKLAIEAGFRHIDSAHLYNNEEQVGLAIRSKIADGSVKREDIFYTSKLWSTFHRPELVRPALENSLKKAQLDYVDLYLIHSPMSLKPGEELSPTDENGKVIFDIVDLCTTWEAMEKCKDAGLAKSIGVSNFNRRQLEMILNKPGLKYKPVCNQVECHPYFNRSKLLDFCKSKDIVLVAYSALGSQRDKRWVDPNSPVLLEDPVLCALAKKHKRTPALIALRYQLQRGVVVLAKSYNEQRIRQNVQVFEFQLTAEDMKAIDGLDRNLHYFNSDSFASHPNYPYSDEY
The settings on record: for IC50 Ratio 1C2:1C3: selectivity, ratio of IC50 values AKR1C2 to AKR1C3.

A further experiment has as its target T2, AKR1C2 (Homo sapiens, UniProt P52895).
T2 sequence (P52895 1-323): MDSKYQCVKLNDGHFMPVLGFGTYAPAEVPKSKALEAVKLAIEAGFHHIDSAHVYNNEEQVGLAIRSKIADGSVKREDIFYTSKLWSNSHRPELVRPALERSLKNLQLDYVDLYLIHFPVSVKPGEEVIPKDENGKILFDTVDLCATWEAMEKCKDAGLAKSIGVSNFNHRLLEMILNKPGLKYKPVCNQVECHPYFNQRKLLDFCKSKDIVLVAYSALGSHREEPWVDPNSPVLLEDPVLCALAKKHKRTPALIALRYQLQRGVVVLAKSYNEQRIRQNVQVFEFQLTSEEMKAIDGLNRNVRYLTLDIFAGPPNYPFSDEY

[1] abbreviates: read-out: 1C3 IC50, recombinant AKR1C3, S-tetralol 165 μM (= Km), NADP+.
Setting [2] is: read-out: 1C2 IC50, recombinant AKR1C2, S-tetralol 15 μM (= Km), NADP+.

Where two headings read alike, the source gives them in different places.

With `O=C(O)C=Cc1ccc(OC(=O)CCc2ccccc2)cc1` (mixture of isomers) [Compound 10, (Z/E)-3-(4-((3-phenylpropanoyl)oxy)phenyl)acrylic acid], the “decrease of the inhibitory selectivity” value at AKR1C3 (in comparison to compound 8) was found to be 1.7 fold. Further, the results for the IC50 on AKR1C3 (setting [1]) and at AKR1C2 (setting [2]) were 2.3 µM and 25 µM, respectively. The “IC50 Ratio 1C2:1C3” value at AKR1C3 amounted to 11.

Take `O=C(O)/C=C/c1cccc(OC(=O)CCc2ccccc2)c1` [Compound 9, (E)-3-(3-((3-phenylpropanoyl)oxy)phenyl)acrylic acid]: at AKR1C3, the IC50 was determined as 0.96 µM and the “IC50 Ratio 1C2:1C3” value worked out at 28. The “increase of the inhibitory selectivity” value on AKR1C3 (in comparison to compound 8) came out at 1.5 fold. The compound also registered a half-maximal inhibitory concentration (IC50) on AKR1C2 of 27 µM.

With `O=C(O)/C=C/c1ccc(O)cc1` [Compound 14, p-coumaric acid], at AKR1C3, the IC50 turned out to be 199 µM and the “IC50 Ratio 1C2:1C3” value came out at 7. In addition, the concentration for half-maximal inhibition (IC50) on AKR1C2 came out at 1300 µM.

On to `COc1cc(/C=C/C(=O)O)ccc1O` [Compound 16, ferulic acid], for which the IC50 on AKR1C3 (setting [1]) was found to be 21 µM; on AKR1C2 (setting [2]) it was 421 µM. On AKR1C3, the “IC50 Ratio 1C2:1C3” value turned out to be 20.

For `O=C(O)/C=C/c1ccc(OC(=O)c2ccccc2)cc1` [Compound 11, (2E)-3-[4-(benzoyloxy)phenyl]prop-2-enoic acid], the IC50 turned out to be 6.3 µM on AKR1C3 and 127 µM against AKR1C2. On AKR1C3, the “IC50 Ratio 1C2:1C3” value amounted to 20.

Turning to “(2E)-3-(3,3-dimethyl-3,4-dihydro-2H-1-benzopyran-6-yl)prop-2-enoate [Compound 5]”, the values for the IC50 at AKR1C3 (setting [1]) and on AKR1C2 (setting [2]) were 21 µM and 14 µM, respectively. Besides, the “further decrease of inhibitory potency for AKR1C3” value on AKR1C3 (relative to compound 4) is on record as 2 fold. At AKR1C3, the “IC50 Ratio 1C2:1C3” value was found to be 1. Also, the “further decrease of inhibitory potency for AKR1C2” value at AKR1C2 (relative to compound 4) was 2 fold.

Regarding `O=C(O)/C=C/c1cccc(O)c1` [Compound 15, m-coumaric acid], the figures for the IC50 at AKR1C3 (setting [1]) and at AKR1C2 (setting [2]) were 86 µM and 389 µM, respectively. For the same compound, the “IC50 Ratio 1C2:1C3” value at AKR1C3 turned out to be 5.

For the compound `O=C(O)/C=C/c1ccc(OC(=O)c2ccncc2)cc1` [Compound 12, (2E)-3-[4-(pyridine-4-carbonyloxy)phenyl]prop-2-enoic acid], on AKR1C3, the IC50 turned out to be 68 µM and the “IC50 Ratio 1C2:1C3” value was determined as 1. The IC50 on AKR1C2 was found to be 88 µM.

As to `O=C(O)/C=C/c1ccc(OC(=O)CCc2ccccc2)cc1` [Compound 8, (2E)-3-prop-2-enoic acid], the half-maximal inhibitory concentration (IC50) at AKR1C3 (setting [1]) is 4.7 µM; on AKR1C2 (setting [2]) it was 88 µM. In addition, the “IC50 Ratio 1C2:1C3” value at AKR1C3 amounted to 19.

On to `CC(C)(C)OC(=O)C=Cc1ccc(OC(=O)CCc2ccccc2)cc1` (mixture of isomers) [Compound 13, (Z/E)-tert-butyl 3-(4-(3-phenylpropanoyloxy)phenyl)acrylate], for which the figures for the IC50 on AKR1C3 (setting [1]) and at AKR1C2 (setting [2]) were 632 µM and 27 µM, respectively. Moreover, the “IC50 Ratio 1C2:1C3” value at AKR1C3 is reported as 0.04.

Consider `CC(C)=CCc1cc(/C=C/C(=O)OC(C)(C)C)ccc1OC(=O)CCc1ccccc1` [Compound 7, tert-butyl(2E)-3-[3-(3-methylbut-2-en-1-yl)-4-[(3-phenylpropanoyl)oxy]phenyl]prop-2-enoate], for which, at AKR1C3, the midpoint of inhibition, the IC50, lay at 607 µM and the “IC50 Ratio 1C2:1C3” value amounted to 0.3. At AKR1C2, this compound registered an IC50 of 153 µM.

The values above are taken from publication PMC4414711 (Chemico-biological interactions, 2014).
